Data on one sequence can be found in publication PMC10818749, “Toxicity Studies of Cardiac-Targeting Peptide Reveal a Robust Safety Profile” (Pharmaceutics, 2024).

Ends that are not written are not given here. Where only a bound is given, the exact number is not on record here.

One series concerns the target CAV1.2 (Homo sapiens, UniProt Q13936). Kind of series: in vitro. The class given is cell-based. The following applies: blocker; FLIPR Tetra; up to 30 µM; read-out: RC50 (the source's name). On the procedure: Ion Channel Assays: Cell lines were grown, plated, and loaded with 1× loading buffer containing 1× dye and 2.5 mM freshly prepared probenecid. Assays were performed, and activity was measured using a FLIPR Tetra. Percent of activation and percent of inhibition were calculated to determine agonist and antagonist activity, respectively. […]
The KINOMEscan screening platform employs a novel and propri- Membrane Potential Assay etary active site-directed competition binding assay to quantitatively The FLIPR® Membrane Potential Assay Kit is used which utilizes a pro-measure interactions between test compounds and the kinases. prietary fluorescent indicator dye in combination with a quencher to This robust and reliable assay technology affords investigators the reflect real-time membrane potential changes associated with ion ability to extensively annotate compounds with accurate, precise channel activation and ion transporter proteins. […]
Compounds that bind the kinase active site and directly (sterically) be monitored within a single experiment. […]
a quantitative, precise and ultra-sensitive qPCR method that detects the receptor signals release of intracellular calcium, which results in the associated DNA label (D). In a similar manner, dissociation con- an increase of dye fluorescence. […]
Neurotransmitter Transporter Uptake Assay spectrophotometric, fluorometric, and luminescent readouts. […]

Another series has as its target T1, ADRB1 (Homo sapiens, UniProt P08588).
T1 construct: host or cells: cAMP Hunter cell line
Kind of series: ADRB1 GPCR cAMP modulation assay. The class given is cell-based. The following applies: compared to the controls. As for the experimental part:
GPCR cAMP Modulation Assays: cAMP Hunter cell lines were grown, plated, and subjected to Eurofins’ DiscoverX HitHunter cAMP XS+ assay. Gs agonist activity, Gi agonist activity, and antagonist activity-induced assays were read using chemiluminescent signal detection. The percentage of activity was calculated for Gs and Gi agonist assays, and the percentage of inhibition was calculated for Gs antagonist assays. […]
cAMP Second ary Messenger Assay pound results in the release of calcium from intracellular stores and DiscoverX has developed a panel of cell lines stably expressing non- an increase in dye fluorescence that is measured in real-time. tagged GPCRs that endogenously signal through cAMP. […]
The enzyme is split into two complementary portions: Enzyme Ac-ceptor (EA) and Enzyme Donor (ED). […] Active enzyme can then convert a chemilumines-cent substrate, generating an output signal detectable on a standard The NHR is tagged with the ProLink™ (PK) component of our EFC microplate reader. assay system, and the SRCP domain is fused to the Enzyme Ac-ceptor component (EA) expressed in the nucleus. […]

T1 sequence (P08588 whole entry): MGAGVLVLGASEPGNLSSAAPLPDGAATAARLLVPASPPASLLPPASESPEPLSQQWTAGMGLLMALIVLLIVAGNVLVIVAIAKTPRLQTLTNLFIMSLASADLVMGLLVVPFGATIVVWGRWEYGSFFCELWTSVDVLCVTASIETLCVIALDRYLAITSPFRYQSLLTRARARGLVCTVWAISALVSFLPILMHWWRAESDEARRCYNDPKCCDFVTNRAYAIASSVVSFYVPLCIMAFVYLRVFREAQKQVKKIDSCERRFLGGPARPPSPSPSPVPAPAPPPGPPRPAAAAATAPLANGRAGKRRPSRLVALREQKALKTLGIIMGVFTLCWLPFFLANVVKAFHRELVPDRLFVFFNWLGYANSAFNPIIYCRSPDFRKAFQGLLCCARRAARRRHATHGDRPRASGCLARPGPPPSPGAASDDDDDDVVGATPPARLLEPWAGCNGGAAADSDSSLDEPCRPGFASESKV
CAV1.2, sequence (Q13936 whole entry): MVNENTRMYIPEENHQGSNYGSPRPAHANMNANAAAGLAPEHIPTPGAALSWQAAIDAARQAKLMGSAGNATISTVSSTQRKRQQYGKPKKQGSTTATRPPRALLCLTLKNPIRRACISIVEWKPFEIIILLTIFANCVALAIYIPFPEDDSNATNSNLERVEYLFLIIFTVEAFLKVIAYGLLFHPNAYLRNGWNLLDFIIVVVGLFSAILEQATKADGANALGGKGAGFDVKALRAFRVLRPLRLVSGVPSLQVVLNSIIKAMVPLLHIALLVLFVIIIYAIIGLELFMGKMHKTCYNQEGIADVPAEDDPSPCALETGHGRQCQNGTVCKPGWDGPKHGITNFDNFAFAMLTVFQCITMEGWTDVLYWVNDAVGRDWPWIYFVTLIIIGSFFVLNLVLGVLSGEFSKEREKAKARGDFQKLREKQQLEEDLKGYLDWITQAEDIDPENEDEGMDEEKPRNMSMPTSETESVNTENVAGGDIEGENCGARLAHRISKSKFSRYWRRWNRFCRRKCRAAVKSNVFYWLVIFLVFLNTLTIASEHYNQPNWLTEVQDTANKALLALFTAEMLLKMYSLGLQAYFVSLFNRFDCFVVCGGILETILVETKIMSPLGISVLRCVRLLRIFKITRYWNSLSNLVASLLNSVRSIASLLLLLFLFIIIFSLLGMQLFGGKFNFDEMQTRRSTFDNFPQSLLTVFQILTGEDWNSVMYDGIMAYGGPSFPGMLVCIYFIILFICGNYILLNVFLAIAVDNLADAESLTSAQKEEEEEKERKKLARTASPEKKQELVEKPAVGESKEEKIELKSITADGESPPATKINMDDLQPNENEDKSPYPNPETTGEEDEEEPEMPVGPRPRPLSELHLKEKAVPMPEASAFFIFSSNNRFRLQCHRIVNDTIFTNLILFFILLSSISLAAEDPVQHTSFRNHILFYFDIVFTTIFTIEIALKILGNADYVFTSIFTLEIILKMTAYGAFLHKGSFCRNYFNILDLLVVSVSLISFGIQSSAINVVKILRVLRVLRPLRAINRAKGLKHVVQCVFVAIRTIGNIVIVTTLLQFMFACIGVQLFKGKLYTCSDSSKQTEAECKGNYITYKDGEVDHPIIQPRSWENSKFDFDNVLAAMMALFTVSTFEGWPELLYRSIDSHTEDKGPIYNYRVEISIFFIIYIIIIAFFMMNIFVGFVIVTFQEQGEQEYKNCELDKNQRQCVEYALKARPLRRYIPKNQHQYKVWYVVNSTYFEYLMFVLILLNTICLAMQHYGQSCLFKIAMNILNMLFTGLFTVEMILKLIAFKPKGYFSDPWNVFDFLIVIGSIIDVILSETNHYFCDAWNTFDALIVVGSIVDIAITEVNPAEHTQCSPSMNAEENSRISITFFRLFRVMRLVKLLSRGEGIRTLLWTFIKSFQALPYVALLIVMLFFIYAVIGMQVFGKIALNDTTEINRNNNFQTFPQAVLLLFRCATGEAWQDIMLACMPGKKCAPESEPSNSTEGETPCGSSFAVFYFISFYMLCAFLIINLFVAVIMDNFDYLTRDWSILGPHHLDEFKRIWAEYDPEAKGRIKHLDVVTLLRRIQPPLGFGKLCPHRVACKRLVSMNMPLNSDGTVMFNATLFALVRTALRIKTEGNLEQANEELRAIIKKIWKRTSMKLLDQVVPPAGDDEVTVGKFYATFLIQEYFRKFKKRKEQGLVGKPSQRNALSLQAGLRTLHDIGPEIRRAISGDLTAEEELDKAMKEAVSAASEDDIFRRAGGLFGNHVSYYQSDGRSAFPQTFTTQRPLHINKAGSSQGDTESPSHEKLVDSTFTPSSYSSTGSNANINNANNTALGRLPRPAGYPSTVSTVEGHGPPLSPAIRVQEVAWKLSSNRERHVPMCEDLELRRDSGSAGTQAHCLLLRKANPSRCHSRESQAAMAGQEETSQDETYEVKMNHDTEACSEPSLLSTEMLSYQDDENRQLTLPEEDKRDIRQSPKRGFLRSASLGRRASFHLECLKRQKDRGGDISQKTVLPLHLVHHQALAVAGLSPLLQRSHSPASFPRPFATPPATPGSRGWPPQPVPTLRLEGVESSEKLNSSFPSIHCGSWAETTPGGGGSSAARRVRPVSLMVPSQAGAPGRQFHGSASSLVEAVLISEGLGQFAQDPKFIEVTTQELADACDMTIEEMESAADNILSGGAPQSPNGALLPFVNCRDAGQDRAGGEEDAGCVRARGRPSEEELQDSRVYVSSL
CAV1.2, sequence (Q08289 whole entry partner): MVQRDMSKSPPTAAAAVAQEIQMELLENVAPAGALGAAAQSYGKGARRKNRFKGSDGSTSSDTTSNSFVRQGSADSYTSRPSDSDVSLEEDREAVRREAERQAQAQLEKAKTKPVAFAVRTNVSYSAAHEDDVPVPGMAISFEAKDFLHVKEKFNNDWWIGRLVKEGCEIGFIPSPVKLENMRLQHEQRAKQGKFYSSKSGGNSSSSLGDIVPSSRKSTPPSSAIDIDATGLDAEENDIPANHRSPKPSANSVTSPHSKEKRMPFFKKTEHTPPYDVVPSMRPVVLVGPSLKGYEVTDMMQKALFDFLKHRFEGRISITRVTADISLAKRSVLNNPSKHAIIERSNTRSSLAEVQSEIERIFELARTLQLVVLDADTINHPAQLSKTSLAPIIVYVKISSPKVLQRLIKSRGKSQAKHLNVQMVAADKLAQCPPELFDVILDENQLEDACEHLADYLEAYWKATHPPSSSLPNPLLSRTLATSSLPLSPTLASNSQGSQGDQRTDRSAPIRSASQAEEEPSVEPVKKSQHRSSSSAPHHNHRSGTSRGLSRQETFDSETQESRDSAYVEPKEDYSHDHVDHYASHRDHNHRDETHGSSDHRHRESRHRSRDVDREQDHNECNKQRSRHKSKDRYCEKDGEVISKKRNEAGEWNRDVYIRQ
CAV1.2, sequence (P54289 25-956 partner limits assumed): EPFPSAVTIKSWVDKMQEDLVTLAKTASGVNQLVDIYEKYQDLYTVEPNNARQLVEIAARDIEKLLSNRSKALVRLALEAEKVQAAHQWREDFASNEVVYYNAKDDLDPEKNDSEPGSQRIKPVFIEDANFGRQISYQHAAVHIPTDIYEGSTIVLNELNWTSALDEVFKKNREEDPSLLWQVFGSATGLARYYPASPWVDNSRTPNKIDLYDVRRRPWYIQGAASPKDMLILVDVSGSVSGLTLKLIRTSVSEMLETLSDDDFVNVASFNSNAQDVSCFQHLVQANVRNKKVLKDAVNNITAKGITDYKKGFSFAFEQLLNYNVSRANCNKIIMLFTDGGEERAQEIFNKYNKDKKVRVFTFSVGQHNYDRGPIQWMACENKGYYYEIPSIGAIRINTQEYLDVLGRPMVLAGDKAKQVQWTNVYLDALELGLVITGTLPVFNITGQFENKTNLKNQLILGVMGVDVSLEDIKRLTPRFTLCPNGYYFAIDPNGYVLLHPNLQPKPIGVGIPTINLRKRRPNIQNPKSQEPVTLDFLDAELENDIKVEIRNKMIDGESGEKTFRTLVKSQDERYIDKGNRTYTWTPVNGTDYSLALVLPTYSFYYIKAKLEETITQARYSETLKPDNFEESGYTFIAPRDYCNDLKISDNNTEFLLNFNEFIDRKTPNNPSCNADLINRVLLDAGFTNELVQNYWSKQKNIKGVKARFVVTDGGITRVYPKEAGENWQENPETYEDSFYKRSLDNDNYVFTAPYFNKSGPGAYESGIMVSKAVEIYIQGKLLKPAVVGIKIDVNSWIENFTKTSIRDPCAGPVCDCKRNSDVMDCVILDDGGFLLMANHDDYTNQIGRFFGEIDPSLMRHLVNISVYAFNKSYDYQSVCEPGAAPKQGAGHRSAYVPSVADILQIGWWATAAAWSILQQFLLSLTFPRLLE
CAV1.2, sequence (P54289 957-1103 partner limits assumed): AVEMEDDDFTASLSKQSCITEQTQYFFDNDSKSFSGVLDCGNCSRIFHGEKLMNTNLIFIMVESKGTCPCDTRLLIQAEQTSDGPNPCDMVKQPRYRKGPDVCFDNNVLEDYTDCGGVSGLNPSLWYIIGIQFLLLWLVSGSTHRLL

For APWHLSSQYSRT [CTP], the IC50 on CAV1.2 is above 30 µM. For the same sequence, on ADRB1, the “agonist or antagonist action” value was “no significant action as either an agonist or antagonist”.
